The NIST ThermoML archive (doi:10.1016/j.jct.2010.11.017)

Assay: wn = mass fraction of the nth substance listed
Details: 101 kPa, Liquid; for viscosity: Capillary tube (Ostwald / Ubbelohde) method; for speed of sound: Frequency=3 MHz, Linear variable-path acoustic interferometer; for mass density: Pycnometric method

O=C[C@H](O)[C@@H](O)[C@H](O)[C@H](O)CO [D-glucose] + O
Details	mass density [kg/m3]	speed of sound [m/s]	viscosity [mPa·s]
293.15 K, w1 = 0.05	1016.28	–	1.176
293.15 K, w1 = 0.1	1034.79	1521.4	1.357
293.15 K, w1 = 0.15	1053.29	1532.4	1.541
293.15 K, w1 = 0.2	1072.41	1543.2	1.877
298.15 K, w1 = 0.05	1014.69	1514.3	0.9767
298.15 K, w1 = 0.1	1033.15	1530.6	1.12
298.15 K, w1 = 0.15	1051.61	1542.5	1.316
298.15 K, w1 = 0.2	1070.31	1553.3	1.67
303.15 K, w1 = 0.05	1013.08	1525.1	0.8605
303.15 K, w1 = 0.1	1031.5	1540.3	0.9907
303.15 K, w1 = 0.15	1049.92	1551.5	1.147
303.15 K, w1 = 0.2	1068.17	1563.1	1.491
308.15 K, w1 = 0.05	1011.47	1535.7	0.7697
308.15 K, w1 = 0.1	1029.84	1550.2	0.8844
308.15 K, w1 = 0.15	1048.37	1560.5	1.018
308.15 K, w1 = 0.2	1065.97	1573.5	1.345
313.15 K, w1 = 0.05	1009.85	1545.6	0.6945
313.15 K, w1 = 0.1	1028.17	1559.9	0.7901
313.15 K, w1 = 0.15	1046.62	1569.6	0.8925
313.15 K, w1 = 0.2	1063.76	1582.2	1.21
318.15 K, w1 = 0.05	–	1554.5	0.6334
318.15 K, w1 = 0.1	1026.48	1568.4	0.7223
318.15 K, w1 = 0.15	1044.93	1577.2	0.8097
318.15 K, w1 = 0.2	1061.52	1591.2	1.112
